Experimental data from patent US20260297060A1, “COMPOUNDS FOR THE DEGRADATION OF MUTANT BRAF” (C4 THERAPEUTICS, INC., priority 2023, published 2026).
Where two headings read alike, the source gives them in different places.

Columns and labels:
[1] = tested on: A375 human melanoma xenografts; test: Example 6 efficacy study in A375 human melanoma xenografts (tumor volume, T/C, TGI); type: in vivo, BALB/c nude mice; details: 10 mg/kg, p.o., BID × 21 days; for T/C / TGI / Tumor Size on PG-D21: PG-D21; for Tumor Size on PG-D21 / Tumor volume: Mean ± SEM
Experimental: For efficacy study, compounds were tested in the A375 human melanoma xenografts. Known BRAF inhibitors encorafenib, and dabrafenib were used as positive controls. Encorafenib and dabrafenib were administered to BALB/c nude mice bearing A375 tumors on PG-D1 and dosed PO daily (QD) for 3 weeks. Encorafenib was dosed at 35 mg/kg. Dabrafenib was dosed at 100 mg/kg. Compound 83, Compound 93, Compound 70, and Compound 54 were administered to BALB/c nude mice bearing A375 tumors on PG-DO and dosed PO twice per day (BID) for 3 weeks. Compound 83, Compound 93, Compound 70, and Compound 54 were dosed at 10 mg/kg.
The A375 tumor cells were maintained in vitro in DMEM medium supplemented with […] and 1% Penicillin-Streptomycin at 37° C. in an atmosphere of 5% CO2 in air. The tumor cells were routinely subcultured twice weekly. The cells growing in an exponential growth phase were harvested and counted for tumor inoculation.
Each mouse was inoculated subcutaneously at the right flank with A375 tumor cells (5×10^6) in 0.2 mL of PBS with Matrigel (PBS: Matrigel=1:1) supplemented for tumor development. Animals were grouped for the treatment on day 16 after tumor inoculation when the average tumor volume reached 221 mm^3 for efficacy study and 386 mm^3 for PKPD study. The test articles administration and the animal numbers in each group are shown in the above experimental Tables.
Prior to the onset of drug treatment, mice were measured for tumor size in two dimensions using a caliper, and the tumor volume (mm^3) was calculated using formula V=0.5 a×b^2 where a and b are the long and short diameters of the tumor in mm, respectively. Mice were randomized into different treatment groups based on the tumor volume.
The major endpoint was to see if the tumor growth could be delayed or mice could be cured. The tumor size was then used for calculations of T/C value. The T/C value (in percent) is an indication of antitumor effectiveness; T and C are the mean volumes of the treated and control groups, respectively on specified day.
TGI was calculated for each group using the formula: TGI (%)=[1−(Ti−T0)/(Ci−C0)]×100; Ti is the average tumor volume of a treatment group on a given day, T0 is the average tumor volume of the treatment group on the day of treatment start, Ci is the average tumor volume of the vehicle control group on the same day with Ti, and C0 is the average tumor volume of the vehicle group on the day of treatment start.

[2] = Example 6 pharmacokinetics assay for PKPD study (plasma, tumor, liver); type: in vivo, BALB/c nude mice; details: 10 mg/kg, single dose; for concentration at 6 h / concentration at 12 h / concentration at 1 h / concentration at 24 h: mouse, po
Experimental: For the pharmacokinetic/pharmacodynamic (PKPD) study, compounds were tested in the A375 human melanoma xenografts. Known BRAF inhibitors encorafenib, and dabrafenib were used as positive controls. Encorafenib, dabrafenib, Compound 83, Compound 93, Compound 70, and Compound 54 were administered to BALB/c nude mice bearing A375 tumors on PG-D1 and dosed orally (PO) once. Encorafenib was dosed at 35 mg/kg. Dabrafenib was dosed at 100 mg/kg. Compound 83, Compound 93, Compound 70, and Compound 54 were dosed at 10 mg/kg. The plasma and tumor samples were collected at 1, 6, 12 and 24 hours, and liver samples were collected at 6 hours and 12 hours post the single dose. This study was non-GLP study.
The plasma samples were collected at predetermined time points for PK analysis. The mice were euthanized at predetermined time points post the treatment. The blood samples were collected into the 1.5 mL Eppendorf tubes containing 15 μL of 0.5 M EDTA-K2. And then the anticoagulant blood samples were centrifuged at 2,500 g at 4° C. for 15 minutes. The plasma samples were separated into 2 aliquots. The 1st was used for PK analysis, and the 2nd served as backup. The samples were stored at −80° C. before bioanalysis.
The tumor samples were collected at predetermined time points for PK and WB analysis (B-RAF and p-ERK). The tumor was dissected out and split into 3 parts. The 1st part was used for PK analysis, the 2nd part was used for WB analysis and the last one served as backup for study. The samples were transferred into pre-labeled tubes and quickly froze in liquid nitrogen within 2 minutes after dissection. The samples were stored at −80° C. before bioanalysis.
Liver samples were collected at predetermined time points for PK analysis. The left lobe of the liver was dissected out and split into 2 parts. The 1st part was used for PK analysis and the 2nd part served as the backup for the study. The samples were transferred into pre-labeled tubes and quickly froze in liquid nitrogen within 2 minutes after dissection. The samples were stored at −80° C. before bioanalysis.
For PKPD study, the harvested plasma, tumor and liver were processed for pharmacokinetics analysis by LC/MS/MS with a concentration range of 0.5-1000 ng/mL for Encorafenib and Dabrafenib in plasma, 0.05-100 ng/mL for Encorafenib and Dabrafenib in tumor, 0.2-200 ng/mL for Encorafenib and Dabrafenib in liver, 2.0-2000 ng/mL for compound 93, compound 83, compound 54 and compound 70 in liver, 50.0-50000 ng/mL for compound 83 and compound 70 in plasma, 0.5-1000 ng/mL for compound 83 and compound 70 in tumor, 1.0-2000 ng/mL for compound 93 in plasma, 10.0-20000 ng/mL for compound 54 in plasma, 0.5-500 ng/mL for compound 93 and compound 54 in tumor.

[3] = liver, 6 h, read-out: Concentration in Liver (mean ± SEM)
[4] = liver, 12 h, read-out: Concentration in Liver (mean ± SEM)
[5] = plasma, 1 h, read-out: Concentration in Plasma (mean ± SEM)
[6] = plasma, 6 h, read-out: Concentration in Plasma (mean ± SEM)
[7] = plasma, 12 h, read-out: Concentration in Plasma (mean ± SEM)
[8] = plasma, 24 h, read-out: Concentration in Plasma (mean ± SEM)
[9] = tumor, 1 h, read-out: Concentration in Tumor (mean ± SEM)
[10] = tumor, 6 h, read-out: Concentration in Tumor (mean ± SEM)
[11] = tumor, 12 h, read-out: Concentration in Tumor (mean ± SEM)
[12] = tumor, 24 h, read-out: Concentration in Tumor (mean ± SEM)

| Compound | T/C [1] [%] | TGI [1] [%] | Tumor Size on PG-D21 [1] [mm^3] | Tumor volume ([1]; day 0) [mm^3] | Tumor volume ([1]; day 4) [mm^3] | Tumor volume ([1]; day 7) [mm^3] | Tumor volume ([1]; day 11) [mm^3] | Tumor volume ([1]; day 14) [mm^3] | Tumor volume ([1]; day 18) [mm^3] | Tumor volume ([1]; day 21) [mm^3] | concentration at 6 h [2, 3] [ng/g] | concentration at 12 h [2, 4] [ng/g] | concentration at 1 h [2, 5] [ng/mL] | concentration at 6 h [2, 6] [ng/mL] | concentration at 12 h [2, 7] [ng/mL] | concentration at 24 h [2, 8] [ng/mL] | concentration at 1 h [2, 9] [ng/g] | concentration at 6 h [2, 10] [ng/g] | concentration at 12 h [2, 11] [ng/g] | concentration at 24 h [2, 12] [ng/g] | also measured |
| --- | --- | --- | --- | --- | --- | --- | --- | --- | --- | --- | --- | --- | --- | --- | --- | --- | --- | --- | --- | --- | --- |
| CCN(C)S(=O)(=O)Nc1ccc(F)c(Oc2ccc3ncc([C@@H]4COC5(CCN(C6CCC(c7cc8c(cc7F)c(N7CCC(=O)NC7=O)nn8C)CC6)CC5)C4)nc3c2)c1C#N (single isomer, unassigned) [Compound 54] | 4.1 | 106.6 | 90 ± 27 | 221 ± 11 | 132 ± 13 | 90 ± 14 | 65 ± 13 | 57 ± 13 | 53 ± 13 | 90 ± 27 | 4470 ± 501 | 650 ± 84.2 | 7740 ± 1180 | 3410 ± 703 | 605 ± 124 | 54 ± 9.5 | 513 ± 28.8 | 931 ± 147 | 477 ± 125 | 29.8 ± 2.9 |  |
| CCN(C)S(=O)(=O)Nc1ccc(F)c(Oc2ccc3ncn([C@H]4COC5(CCN(C6CC(c7cc8c(cc7F)c(N7CCC(=O)NC7=O)nn8C)C6)CC5)C4)c(=O)c3c2)c1C#N (single isomer, unassigned) [Compound 70] | 0.9 | 110.1 | 19 ± 2 | 221 ± 10 | 111 ± 13 | 66 ± 6 | 44 ± 3 | 34 ± 2 | 24 ± 2 | 19 ± 2 |  |  |  |  |  |  |  |  |  |  | Concentration in Plasma (mean ± SEM) ([2]; 1 h): 15100 ± 3559 ng/mL; Concentration in Tumor (mean ± SEM) ([2]; 1 h): 816 ± 239 ng/g; Concentration in Liver (mean ± SEM) ([2]; 6 h): 4363 ± 1423 ng/g; Concentration in Plasma (mean ± SEM) ([2]; 6 h): 8563 ± 2312 ng/mL; Concentration in Tumor (mean ± SEM) ([2]; 6 h): 1529 ± 458 ng/g; Concentration in Liver (mean ± SEM) ([2]; 12 h): 921 ± 317 ng/g; Concentration in Plasma (mean ± SEM) ([2]; 12 h): 2105 ± 800 ng/mL; Concentration in Tumor (mean ± SEM) ([2]; 12 h): 564 ± 206 ng/g; Concentration in Plasma (mean ± SEM) ([2]; 24 h): 106 ± 10.8 ng/mL; Concentration in Tumor (mean ± SEM) ([2]; 24 h): 21.9 ± 4.93 ng/g |
| CCN(C)S(=O)(=O)Nc1ccc(F)c(Oc2ccc3ncn(C4CC5(CCN(C6CCC(c7cc8c(cc7F)c(N7CCC(=O)NC7=O)nn8C)CC6F)CC5)C4)c(=O)c3c2)c1C#N (single isomer, unassigned) [Compound 83, 6-[2-cyano-3-[[ethyl(methyl)sulfamoyl]amino]-6-fluoro-phenoxy]-3-[7-[4-[3-(2,4-dioxohexahydropyrimidin-1-yl)-5-fluoro-1-methyl-indazol-6-yl]-2-fluoro-cyclohexyl]-7-azaspiro[3.5]nonan-2-yl]-4-oxo-quinazoline] | 0.7 | 110.3 | 15 ± 1 | 221 ± 11 | 89 ± 11 | 62 ± 7 | 39 ± 3 | 31 ± 2 | 22 ± 1 | 15 ± 1 | 6990 ± 166 | 1580 ± 273 | 20100 ± 1510 | 10400 ± 338 | 2420 ± 572 | 172 | 1650 ± 249 | 1820 ± 354 | 751 ± 128 | 57.6 ± 37 |  |
| Cn1nc(N2CCC(=O)NC2=O)c2cc(F)c(C3CCC(N4CCC5(CC4)CC(n4cnc6ccc(Oc7c(F)ccc(NS(=O)(=O)C8CCCC8)c7C#N)cc6c4=O)C5)CC3)cc21 (single isomer, unassigned) [Compound 93, N-[2-cyano-3-[3-[7-[4-[3-(2,4-dioxohexahydropyrimidin-1-yl)-5-fluoro-1-methyl-indazol-6-yl]cyclohexyl]-7-azaspiro[3.5]nonan-2-yl]-4-oxo-quinazolin-6-yl]oxy-4-fluoro-phenyl]cyclopentanesulfonamide] | 3.3 | 107.4 | 73 ± 18 | 221 ± 9 | 133 ± 6 | 97 ± 6 | 69 ± 5 | 59 ± 5 | 52 ± 4 | 73 ± 18 | 460 ± 32.7 | 117 ± 30.2 | 2450 ± 799 | 548 ± 28.3 | 114 ± 25.6 | 2.85 ± 0.408 | 232 ± 75.6 | 129 ± 13.6 | 50.6 ± 14.1 | 59.5 |  |
